Several values for one entry are separate records, joined by “and”; a condition that tells them apart may be missing. Equal values may be shown once. Read-outs that look alike come from different tables or passages of the source.
Assays:
[1] = system: TNFα release from THP-1-derived macrophages; assay: TNFα release from macrophages, compound without CPP2; format: cell-based, human; conditions: without combined CPP2 treatment
Protocol: THP-1 cells were plated at a density of 200,000 cells/well in a 24-well plate, differentiated as stated above, and subsequently treated with or without CPP2 (50 μg Ca/mL) in complete medium with or without test compounds (3, 10, 30, 100 μM) for 24 h at 37 °C, 5% CO2.
Human TNF-α was assayed in cell culture supernatants using commercial multiplex immunoassay kits (U-Plex of TNF-α (custom-made multiplex plate) and Human TNF- Kit (K151QWD-1), both from MesoScaleDiscovery, Rockville, MD, USA), and corrected for total protein content using the Micro BCA^TM Protein Assay Kit. […]
Data are expressed as
mean ± s.d. (n = 3 independent experiments).

[2] = PK in healthy rats, i.v. bolus; format: in vivo, male Sprague-Dawley rats; conditions: for Clobs / plasma concentration / Cmax / AUC(0-t) / MRT: 10 mg/kg i.v.; for half-life / Cmax / Vd / AUC(0-t) / MRT: Sprague-Dawley, rat, iv; for half-life: healthy male rats; for Cmax / Vd / AUC(0-t) / MRT: male; for Vd: read-out: apparent volume of distribution; for MRT: read-out: mean residence time (MRT) (converted)
Protocol: All PK studies in healthy animals were performed by the contract research organization Aphad S.r.l. (Milan, Italy). In all studies, compounds were administered as a salt, and the doses and plasma quantitation refer to the acid form. PK parameters listed in Supplementary Table 13 were derived from measured plasma concentrations applying noncompartmental analysis. Concentration data were extrapolated using the software Analyst™ 6.1 (Applied Biosystems, Foster City, CA, USA), the area under the plasma concentration vs. time curve (AUC) was calculated by linear trapezoidal rule using PK solver 2.0 add-in for Microsoft Excel 2007 (available for download in[83]), and a uniform weight was performed as a first general approach.
To study PK in healthy animals, male Sprague-Dawley rats (Harlan, Correzzana, Italy) were housed up to three per cage with free access to water and standard chow (pellets 12 mm, global diet 2018 certificate, Mucedola, Srl, Settimo Milanese, Italy), and submitted to a 12-h light/dark cycle. Animals were administered i.v. 10 mg/kg of (OEG2)2-IP4 in saline solution i.v. (30 s bolus, 5 mL/kg) and s.c. (5 mL/kg), respectively, in three animals per route and treatment. […] Plasma calcium concentration was determined in pre-dose samples and in t = 30 min samples of both acute and chronic treatments using the calcium colorimetric assay. Blood samples of 100 µL were drawn at several time points from the caudal vein, centrifuged at (3000 × g, 4 °C, 10 min) and stored at −80 °C until analysis by liquid chromatography–tandem mass spectrometry (LC-MS/MS).
The column used for (OEG2)2-IP4 was Kinetex C8 50 × 2.1 mm, 2.6 μm 100 A (Phenomenex, Basel, Switzerland), thermostated at 35 °C. […] Quantitation was carried out as total ion current on the sum of the MRM transitions. […] Samples were agitated 5 min on a […] orbital shaker and centrifuged (16,000 × g, 5 °C, 20 min). […] Samples were then subjected to LC-MS/MS. Rat PK samples were prepared for analysis in an analogous manner as done for spiked samples. The lower limit of quantification (LLOQ) and detection (LOD) in rat plasma for (OEG2)2-IP4 were 25 and 10 ng/mL, respectively. The upper limit of quantification (ULOQ) and detection was 5000 ng/mL.

[3] = Inhibition of calcium phosphate precipitation in serum-free buffer; format: physicochemical; conditions: for inhibition of calcium phosphate precipitation, serum-free: 10 mM calcium, 6 mM phosphate, HBS pH 7.4, 90 min, 37 °C
Description: calcification in organs other than these are available from the present study.
We have included the latest research on CPPs and the respective literature now in the introduction (p. 4, line 74 ff.).
The way I see it the compound stabilizes CPP1, which can be more easily cleared unless it occurs in very high amounts and cannot be cleared at all. Therefore it is important to measure renal mineral clearance ± compound (see comment for Fig 3)
We have amended the discussion in the revised manuscript with respect to the hypothesis on the mechanism of action of (OEG2)2-IP4 postulated by the reviewer. (p. 32, line 614 ff.). We have further addressed the mechanism of action in response to Reviewer #4 Comment 3.
Did they test if (OEG2)2-IP4 compound alone stabilized supersaturated Ca and Pi solutions by forming colloids akin to CPP? […]
and phosphate and formation of hydroxyapatite with the assay from Heiss, A. et al.5. In brief, compound, 10 mM calcium solution and 6 mM phosphate solution in Hepes buffered saline (pH 7.4, RT) were incubated for 90 min at 37 °C and centrifuged at 8 000 x g for 5 min. The recovered pellet was dissolved in 1% (v/v) acetic acid and the calcium content quantified […]. (OEG2)2-IP4 alone stabilized supersaturated calcium and phosphate in […]
CPP1s (Rh < 100 nm) were detected by dynamic light scattering. […]
synergistic effect of (OEG2)2-IP4 with endogenous calcification inhibitors, such as fetuin-A in […]
that are not physiological (no serum), we prefer not to include these additional data in the […]

[4] = target: T1, Protein Tyrosine Kinase, LCK (Homo sapiens, UniProt P06239); assay: Off-target 176020; format: biochemical
T1 construct: purchased Eurofins Panlabs Discovery Services Taiwan, Ltd
Protocol: (§1) The potential off-target activity of 10 µM (OEG2)2-IP4 was assessed against a panel of 87 enzymes, receptors, or ion channels that are used in standard safety pharmacology screens.
(§2) 3.2. Off-target screening assay
(§3) The experiments were conducted by a contract research organization (Eurofins Panlabs Discovery
(§4) Services Taiwan, Ltd.) and details on the respective assays can be retrieved via the catalog number
(§5) provided in Supplementary Table 11 from the company’s webpage
(§6) (https://www.eurofinsdiscoveryservices.com/). […]

[5] = system: GABAA, Chloride Channel, TBOB; assay: Off-target 226810; format: binding, Rat; conditions: 10 µM
Protocol: as §1, §2, §3, §4, §5, §6

[6] = target: T2, Glutamate, Metabotropic, mGlu5 (Homo sapiens, UniProt P41594); assay: Off-target 237000; format: binding
T2 construct: purchased Eurofins Panlabs Discovery Services Taiwan, Ltd
Protocol: as §1, §2
The experiments were conducted by a contract research organization (Eurofins Panlabs Discovery Services Taiwan, Ltd.) and details on the respective assays can be retrieved via the catalog number provided in Supplementary Table 11 from the company’s webpage
as §6
At sacrifice the left tibia of animals of the rat model with dietary adenine/high-phosphate-induced uremia and VC was collected, fixed with 70% v/v EtOH and embedded in methyl methacrylate. The trabecular bone compartment is known to be the most metabolic active i.e. actively re-structured bone compartment in CKD. Therefore, histomorphometric and micro-computed tomography (µCT) analysis of bone was performed on the trabecular compartment. Tibial sections were Goldner-stained for histomorphometric analysis of the proximal metaphysis using the AxioVision Release 4.5 software, as […]
described previously5. […]

[7] = system: Glycine, Strychnine-Sensitive; assay: Off-target 239000; format: binding, Rat; conditions: 10 µM
Neuropeptide Y Y1 = target: T3, Neuropeptide Y Y1 (Homo sapiens, UniProt P25929); assay: Off-target 257010; format: binding
T3 construct: purchased Eurofins Panlabs Discovery Services Taiwan, Ltd
Protocol: as §1, §2, §3, §4, §5, §6

T3 sequence (P25929 whole entry): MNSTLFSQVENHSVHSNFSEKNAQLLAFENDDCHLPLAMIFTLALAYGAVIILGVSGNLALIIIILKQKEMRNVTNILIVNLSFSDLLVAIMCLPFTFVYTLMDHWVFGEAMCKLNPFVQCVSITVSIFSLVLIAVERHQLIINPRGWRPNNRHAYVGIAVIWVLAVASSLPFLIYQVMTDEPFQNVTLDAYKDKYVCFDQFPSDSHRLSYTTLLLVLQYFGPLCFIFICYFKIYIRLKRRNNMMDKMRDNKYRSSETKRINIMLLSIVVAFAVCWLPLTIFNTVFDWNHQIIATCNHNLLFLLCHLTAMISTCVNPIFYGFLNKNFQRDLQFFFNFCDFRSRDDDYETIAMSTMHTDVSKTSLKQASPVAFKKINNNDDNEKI
T2 sequence (P41594 21-1212): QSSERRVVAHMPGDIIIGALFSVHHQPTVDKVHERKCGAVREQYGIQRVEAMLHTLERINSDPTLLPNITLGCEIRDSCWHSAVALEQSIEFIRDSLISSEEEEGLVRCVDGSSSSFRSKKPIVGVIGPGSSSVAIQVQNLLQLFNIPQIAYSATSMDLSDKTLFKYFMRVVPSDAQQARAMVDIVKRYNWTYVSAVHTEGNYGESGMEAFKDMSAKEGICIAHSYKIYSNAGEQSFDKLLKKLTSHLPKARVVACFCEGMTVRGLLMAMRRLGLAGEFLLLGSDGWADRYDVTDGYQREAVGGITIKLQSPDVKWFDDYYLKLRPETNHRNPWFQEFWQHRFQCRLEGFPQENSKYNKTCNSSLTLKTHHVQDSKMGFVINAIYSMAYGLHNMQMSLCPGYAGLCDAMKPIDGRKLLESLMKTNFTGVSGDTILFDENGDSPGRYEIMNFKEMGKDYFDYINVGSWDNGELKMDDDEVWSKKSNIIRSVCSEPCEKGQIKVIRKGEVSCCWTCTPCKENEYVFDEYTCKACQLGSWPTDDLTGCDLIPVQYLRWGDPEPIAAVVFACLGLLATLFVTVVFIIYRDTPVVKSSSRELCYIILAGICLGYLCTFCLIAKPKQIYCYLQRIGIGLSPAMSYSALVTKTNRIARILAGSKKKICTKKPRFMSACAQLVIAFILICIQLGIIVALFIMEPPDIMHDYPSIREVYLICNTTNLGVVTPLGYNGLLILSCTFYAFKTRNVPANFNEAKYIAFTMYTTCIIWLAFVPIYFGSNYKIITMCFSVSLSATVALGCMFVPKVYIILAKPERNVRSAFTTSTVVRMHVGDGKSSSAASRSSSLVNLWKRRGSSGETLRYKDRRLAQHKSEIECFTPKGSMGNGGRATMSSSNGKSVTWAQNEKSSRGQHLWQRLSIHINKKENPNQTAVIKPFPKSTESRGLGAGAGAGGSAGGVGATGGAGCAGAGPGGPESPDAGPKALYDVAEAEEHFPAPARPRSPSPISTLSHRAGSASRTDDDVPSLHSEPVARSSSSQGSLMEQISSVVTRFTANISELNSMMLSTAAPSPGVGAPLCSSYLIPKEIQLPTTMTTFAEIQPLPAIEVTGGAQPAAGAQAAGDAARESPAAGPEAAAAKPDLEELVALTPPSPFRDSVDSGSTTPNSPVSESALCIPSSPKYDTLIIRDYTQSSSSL
T1 sequence (P06239 whole entry): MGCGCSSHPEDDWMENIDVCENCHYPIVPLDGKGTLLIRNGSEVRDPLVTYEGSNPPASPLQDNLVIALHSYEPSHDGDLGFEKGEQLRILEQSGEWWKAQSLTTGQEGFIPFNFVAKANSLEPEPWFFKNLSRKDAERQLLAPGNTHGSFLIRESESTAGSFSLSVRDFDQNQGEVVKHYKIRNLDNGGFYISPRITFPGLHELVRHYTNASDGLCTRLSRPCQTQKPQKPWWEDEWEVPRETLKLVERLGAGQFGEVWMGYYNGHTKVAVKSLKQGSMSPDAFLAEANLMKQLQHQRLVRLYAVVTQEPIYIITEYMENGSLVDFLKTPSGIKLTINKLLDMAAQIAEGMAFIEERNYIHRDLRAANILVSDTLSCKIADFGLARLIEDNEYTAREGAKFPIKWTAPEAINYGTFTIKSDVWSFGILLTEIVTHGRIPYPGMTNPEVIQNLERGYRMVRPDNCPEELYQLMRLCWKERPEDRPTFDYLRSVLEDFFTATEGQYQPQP

In the case of `COCCOCCO[C@@H]1[C@@H](OP(=O)(O)O)[C@H](OCCOCCOC)[C@@H](OP(=O)(O)O)[C@@H](OP(=O)(O)O)[C@H]1OP(=O)(O)O` [(OEG2)2-IP4, 4,6-Di-O-(methoxy-diethyleneglycol)-myo-inositol-1,2,3,5-tetrakis(phosphate)], the “increase in TNFα levels in supernatants” value [1] is reported as “not observed”, the Clobs [2] is reported as 7.6 ± 0.5 mL/min/kg and the “fold increase in plasmatic t1/2 vs IP6” value ([2]; 10 mg/kg i.v. bolus) is reported as roughly 10 fold. For the same molecule, the plasma concentration ([2]; 5 min, individual rats Fig. 4a, unit not printed (µM per Fig. 4b), listed as INS-3001) was 41.12 and 47.02 and 66.21, the plasma concentration ([2]; 15 min, unit not given, listed as INS-3001) was 26.41 and 24.63 and 34.38 and the plasma concentration ([2]; 30 min, unit not given, listed as INS-3001) was 14.11 and 13.26 and 19.44. The plasma concentration ([2]; 60 min, unit not given, listed as INS-3001) was 5.04 and 6 and 6.96, the plasma concentration ([2]; 90 min, unit not given, listed as INS-3001) was 2.07 and 1.64 and 1.72 and the plasma concentration ([2]; 240 min, unit not given, listed as INS-3001) was 0.15 and 0.13. For the same molecule, the plasma concentration ([2]; 360 min, unit not given, listed as INS-3001) was 0.06 and 0.04 and 0.08, the half-life ([2]; in vivo, 10 mg/kg i.v. bolus) was 78 ± 32 min and the Cmax ([2]; in vivo) was 52 ± 13 µM. The Vd ([2]; in vivo, 10 mg/kg i.v. bolus) was 0.234 ± 0.032 L/kg, the AUC(0-t) ([2]; in vivo, t = 360 min) was 26.1 µM·h and the MRT ([2]; in vivo) was 30 min. The “precipitate formation, serum-free” value ([3]; 1 mM) was “no precipitate formed”, the “inhibition of calcium phosphate precipitation, serum-free” value [3] was “stabilized supersaturated calcium and phosphate in solution dose dependently” and the inhibition at 10 µM [4] was 4%. The “% Inhibition” value [5] was -19%, the inhibition at 10 µM [6] was 24% and the “% Inhibition” value [7] was -2%. The inhibition at 10 µM (Neuropeptide Y Y1) was -9%.
For `O=P(O)(O)O[C@H]1[C@H](OP(=O)(O)O)[C@@H](OP(=O)(O)O)[C@H](OP(=O)(O)O)[C@@H](OP(=O)(O)O)[C@H]1OP(=O)(O)O` [IP6, myo-Inositol hexakisphosphate], the Clobs [2] was 68.5 ± 21.2 mL/min/kg, the plasma concentration ([2]; 5 min, individual rats Fig. 4a, unit not printed (µM per Fig. 4b)) was 13.9 and 17.5 and 6.9 and 6.5 and 5.5 and 5.1 and the half-life ([2]; plasma, 10 mg/kg i.v. bolus) was 8 ± 2 min. For the same molecule, the Cmax ([2]; plasma) was 13 ± 6 µM, the Vd ([2]; plasma, 10 mg/kg i.v. bolus) was 0.958 ± 0.405 L/kg and the AUC(0-t) ([2]; plasma, t = 30 min) was 3.77 µM·h. For the same molecule, the MRT ([2]; plasma) was 14 min and the “inhibition of calcium phosphate precipitation, serum-free” value [3] was “barely effective”.

Source: PMC7002685, “Inhibition of vascular calcification by inositol phosphates derivatized with ethylene glycol oligomers” (Nature Communications, 2020)
